Data set [1] in a line: Metabolic Stability in human liver microsome assessed as half life at […] measured upto 60 mins by HPLC-MS/MS analysis. The format is ADME. The following applies: liver microsomes.
Data set [2] is described as follows: Metabolic Stability in mouse liver microsome assessed as half life at […] measured upto 60 mins by HPLC-MS/MS analysis. The format is ADME. The following applies: liver microsomes.
Data set [3] can be described thus: Metabolic Stability in mouse liver microsome assessed as microsomal intrinsic clearance at […] measured upto 60 mins by HPLC-MS/MS analysis. The data set is classed as ADME. The following applies: liver microsomes, read-out: CLH. On the technique in general: Microsomes from liver hold many membrane-bound enzymes, among them those of drug oxidation.
The nature of data set [4]: Metabolic Stability in human liver microsome assessed as microsomal intrinsic clearance at […] measured upto 60 mins by HPLC-MS/MS analysis. The format is ADME. The following applies: liver microsomes, read-out: CLH.
Data set [5] addresses T1, Nuclear receptor ROR-gamma (Homo sapiens, UniProt P51449).
T1 sequence (P51449 whole entry): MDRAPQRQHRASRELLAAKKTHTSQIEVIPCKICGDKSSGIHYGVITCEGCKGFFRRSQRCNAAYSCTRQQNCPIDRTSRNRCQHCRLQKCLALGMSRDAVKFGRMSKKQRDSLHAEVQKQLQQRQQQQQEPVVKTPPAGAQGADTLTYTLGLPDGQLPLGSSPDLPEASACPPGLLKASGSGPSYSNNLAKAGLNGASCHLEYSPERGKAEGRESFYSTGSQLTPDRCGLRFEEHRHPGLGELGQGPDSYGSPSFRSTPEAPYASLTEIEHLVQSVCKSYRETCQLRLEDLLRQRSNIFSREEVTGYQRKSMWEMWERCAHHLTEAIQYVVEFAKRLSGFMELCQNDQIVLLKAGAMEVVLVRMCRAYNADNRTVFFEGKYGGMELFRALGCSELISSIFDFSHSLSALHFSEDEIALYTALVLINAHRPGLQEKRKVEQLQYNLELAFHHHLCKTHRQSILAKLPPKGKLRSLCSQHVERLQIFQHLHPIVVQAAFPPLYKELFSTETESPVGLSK
Kind of data set: Agonist activity at biotinylated APC-labeled RORgammat LBD (unknown origin) assessed as increase in recruitment of europium-labeled SRC1 coactivator peptide incubated for 1 hr by dual FRET assay.

A short description of another data set: cells. The following applies: Mus musculus, CD4+ T cell, 96 h.
For data set [6], the target named is T1, Nuclear receptor ROR-gamma. Kind of data set: Inverse agonist activity at biotinylated APC-labeled RORgammat LBD (unknown origin) assessed as inhibition of europium-labeled SRC1 coactivator peptide recruitment incubated for 1 hr by dual FRET assay.
Data set [7] has as its target T2, Nuclear receptor ROR-beta (Homo sapiens, UniProt Q92753).
T2 sequence (Q92753 whole entry): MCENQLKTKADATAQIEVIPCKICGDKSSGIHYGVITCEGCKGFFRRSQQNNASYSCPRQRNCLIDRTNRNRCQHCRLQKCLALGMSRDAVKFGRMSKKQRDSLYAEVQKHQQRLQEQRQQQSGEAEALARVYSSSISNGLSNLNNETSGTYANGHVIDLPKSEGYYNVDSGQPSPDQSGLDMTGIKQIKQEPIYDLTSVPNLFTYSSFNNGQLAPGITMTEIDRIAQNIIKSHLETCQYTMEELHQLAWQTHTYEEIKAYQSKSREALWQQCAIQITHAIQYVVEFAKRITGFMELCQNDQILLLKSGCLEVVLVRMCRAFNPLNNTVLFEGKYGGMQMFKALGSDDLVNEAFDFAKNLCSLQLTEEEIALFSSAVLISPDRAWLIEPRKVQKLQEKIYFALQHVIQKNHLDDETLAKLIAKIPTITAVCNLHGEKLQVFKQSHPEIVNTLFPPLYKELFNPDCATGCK
Kind of data set: Agonist activity at human Gal4-fused RORbeta expressed in HEK293T cells assessed as luciferase activity incubated for 16 to 20 hrs by Luciferase reporter gene assay. The format is cell-based. (Reporter assays use an easily measured gene product as a stand-in for the process of interest.)

Data set [8] has as its target T3, Nuclear receptor ROR-alpha (Homo sapiens, UniProt P35398).
T3 sequence (P35398 whole entry): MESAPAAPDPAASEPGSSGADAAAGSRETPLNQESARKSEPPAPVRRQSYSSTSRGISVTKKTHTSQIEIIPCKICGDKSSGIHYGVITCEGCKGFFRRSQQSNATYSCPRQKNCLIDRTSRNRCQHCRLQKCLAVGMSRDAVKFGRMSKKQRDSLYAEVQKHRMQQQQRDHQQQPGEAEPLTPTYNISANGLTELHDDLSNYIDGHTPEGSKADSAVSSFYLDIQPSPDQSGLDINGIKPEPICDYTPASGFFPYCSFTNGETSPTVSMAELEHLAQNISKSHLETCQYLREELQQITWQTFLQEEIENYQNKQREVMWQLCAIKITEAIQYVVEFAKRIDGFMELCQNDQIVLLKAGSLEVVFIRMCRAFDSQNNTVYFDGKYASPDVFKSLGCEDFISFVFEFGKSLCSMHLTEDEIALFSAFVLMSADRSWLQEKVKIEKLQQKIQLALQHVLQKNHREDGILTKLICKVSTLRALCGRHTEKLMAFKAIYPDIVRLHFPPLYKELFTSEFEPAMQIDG
Kind of data set: Agonist activity at human Gal4-fused RORalpha expressed in HEK293T cells assessed as luciferase activity incubated for 16 to 20 hrs by Luciferase reporter gene assay. The format is cell-based.

For the next data set, the system named is B16-F10. Kind of data set: Antitumor activity against mouse B16-F10 cells xenografted in C57BL/6 mouse assessed as tumor growth inhibition at 50 mg/kg,ip administrated on day 7 for 8 days relative to control. The data set is classed as functional. The following applies: B16-F10, 192 h, time 8 day, read-out: TGI.
The next data set can be described thus: in vivo. The following applies: CD-1, mouse, po, 10 mg/kg.
Data set [9] deals with T4, Nuclear receptor ROR-beta (Homo sapiens) (UniProt Q92753).
T4 sequence (whole entry): T2 sequence (Q92753 whole entry)
Put plainly: Agonist activity at human Gal4-fused RORbeta expressed in HEK293T cells assessed as luciferase activity by measuring maximal response incubated for 16 to 20 hrs by Luciferase reporter gene assay relative to control. The data set is classed as cell-based. The following applies: filed as agonist, time 16-20 hrs.

For data set [10], the target named is T5, Nuclear receptor ROR-alpha (Homo sapiens) (UniProt P35398).
T5 sequence (whole entry): T3 sequence (P35398 whole entry)
Kind of data set: Agonist activity at human Gal4-fused RORalpha expressed in HEK293T cells assessed as luciferase activity by measuring maximal response incubated for 16 to 20 hrs by Luciferase reporter gene assay relative to control. The data set is classed as cell-based. The following applies: filed as agonist, time 16-20 hrs.

SMILES strings stand for the structures.

Description for cells: Induction of Th17 cells differentiation in mouse CD4+ T cell assessed as increase in CD4+ IL-17A production incubated for 4 days by flow cytometry analysis

`CCS(=O)(=O)c1ccc(CNC(=O)Nc2cc(Cl)c(-c3ccc(CC(C)C)c(C#N)c3)c(Cl)c2)cc1`: the half-life in data set [1] was 3.9 min; in data set [2] it was 50.6 min. For the same compound, the microsomal CLint in [3] was determined as 27.4 µL/min/mg; in data set [4], 354 µL/min/mg.
`CCS(=O)(=O)c1ccc(CC(=O)Nc2cc(Cl)c(-c3ccc(CC(C)C)c(F)c3)c(Cl)c2)cc1`: the concentration for a half-maximal effect (EC50) in data set [5] is 15.2 nM.
Regarding `CCS(=O)(=O)c1ccc(CC(=O)Nc2cc(Cl)c(-c3ccc(CN(C)C)c(C#N)c3)c(Cl)c2)cc1`, the half-life in data set [2] is 12.9 min. For the same compound, in data set [3], the microsomal CLint turned out to be 108 µL/min/mg.
`CCS(=O)(=O)c1ccc(CC(=O)Nc2cc(Cl)c(-c3ccc(CC(C)C)c(C#N)c3)c(Cl)c2)cc1`: the results for the concentration for a half-maximal effect (EC50) (in the data set “cells”; in [5]) were 13 nM and 12.2 nM, respectively. Moreover, the half-life was 2.6 min in [1] and 37.7 min in data set [2]. Besides, the microsomal CLint in [3] worked out at 36.7 µL/min/mg; in data set [4], 533 µL/min/mg.
Take `CCS(=O)(=O)c1ccc(CNC(=O)c2cc(Cl)c(-c3ccc(CC(C)C)c(C#N)c3)c(Cl)c2)cc1`: the half-life in data set [1] was less than 2.5 min; in data set [2], 28 min. Moreover, the microsomal CLint in data set [3] is 49.5 µL/min/mg; in data set [4], greater than 554 µL/min/mg.
For the compound `CCS(=O)(=O)c1ccc(CC(=O)Nc2cc(Cl)c(-c3ccc(CC(C)C)c(C#N)c3)c(Cl)c2)nc1`, the half-life amounted to 9.3 min in [1] and 37.4 min in [2]. Further, the microsomal CLint worked out at 37 µL/min/mg in data set [3] and 150 µL/min/mg in [4].
With `CCS(=O)(=O)c1ccc(CC(=O)Nc2cc(Cl)c(-c3ccc(CC4CCCC4)c(C#N)c3)c(Cl)c2)cc1`, the concentration giving a half-maximal response (EC50) in [5] was 14.3 nM.
On to `CCS(=O)(=O)c1ccc(CC(=O)Nc2cc(Cl)c(-c3ccccc3)c(Cl)c2)cc1`, for which the XC50 in data set [6] was 9.2 nM.
Regarding `CCC(C)Cc1ccc(-c2c(Cl)cc(NC(=O)Cc3ccc(S(=O)(=O)CC)cc3)cc2Cl)cc1C#N` (stereo unspecified), the half-life in data set [1] came to 16.9 min; in data set [2], 78.5 min. Besides, the microsomal CLint in data set [3] stood at 17.6 µL/min/mg; in data set [4], 81.9 µL/min/mg.
In the case of `CCS(=O)(=O)c1ccc(CC(=O)Nc2cc(Cl)c(-c3ccc(C=C4CCC4)c(C#N)c3)c(Cl)c2)cc1`, the EC50 in data set [5] amounted to 20.7 nM.
For `CC(C)(C[C@H]1CN(S(=O)(=O)c2cccc(C(F)(F)F)c2)c2cc(-c3cc(F)cc(OC(F)F)c3)ccc2O1)C(=O)O` [CINTIRORGON], the EC50 stood at 5430 nM in data set [7], 9.8 nM in the data set “cells” and 2920 nM in data set [8]. Moreover, in the data set on B16-F10, the inhibition in vivo at 50 mg/kg came to 45.3%. The same compound had an AUC(0-inf) at 24 h in the data set “in vivo” of 3240 ng·h/mL. Also, the %max was 100% in [9] and 67.3% in data set [10].
In the case of `CCS(=O)(=O)c1ccc(CC(=O)Nc2cc(Cl)c(-c3ccc(CC(C)C)cc3)c(Cl)c2)cc1`, the EC50 in data set [5] was 12.7 nM.

In general, half-life refers to the time needed for the level to fall by half in the phase considered. As usually defined, the EC50 is the concentration needed to bring the measured effect to its halfway point. As usually defined, the AUC(0-inf) is total exposure, with the tail of the curve extrapolated. Low values mean low exposure, high ones high exposure.
